pKi: −log10 of the molar value. Where two headings read alike, the source gives them in different places.
Target: T1, α5β3γ2 GABAA receptors (Ltk cell membranes) (Homo sapiens, UniProt P18507+P31644)
T1 construct: membranes
Test: Binding activity of test compounds on GABAAR: inhibition of [3H]Ro15-1788 binding
In short: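 Membranes from dexamethasone-induced Ltk cells (α5 line: 0.5 μM, 1 day); binding with [3H]Ro15-1788 for 1 h at 4 °C in 50 mM KH2PO4, 1 mM EDTA, 0.2 M KCl, pH 7.4, 0.2 mg/ml α5 protein. Nonspecific binding defined by 10 μM diazepam; filtration, scintillation counting, triplicates.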

[1] = GABA α5 Binding Ki Values, inhibition of [3H]Ro15-1788 binding, reported as ranges

T1 sequence (P31644 32-462): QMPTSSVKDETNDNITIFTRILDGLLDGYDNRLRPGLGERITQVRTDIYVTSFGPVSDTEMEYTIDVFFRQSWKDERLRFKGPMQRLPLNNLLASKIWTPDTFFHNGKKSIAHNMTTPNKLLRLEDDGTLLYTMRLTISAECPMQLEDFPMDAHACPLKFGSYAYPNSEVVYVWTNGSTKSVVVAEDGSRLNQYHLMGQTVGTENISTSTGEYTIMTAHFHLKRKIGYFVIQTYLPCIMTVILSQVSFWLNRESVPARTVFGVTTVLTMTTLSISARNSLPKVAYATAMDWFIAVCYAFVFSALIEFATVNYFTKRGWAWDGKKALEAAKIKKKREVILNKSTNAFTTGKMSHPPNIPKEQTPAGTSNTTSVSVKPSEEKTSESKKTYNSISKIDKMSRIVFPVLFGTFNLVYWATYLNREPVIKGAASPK
T1 sequence (P28472 26-473 partner): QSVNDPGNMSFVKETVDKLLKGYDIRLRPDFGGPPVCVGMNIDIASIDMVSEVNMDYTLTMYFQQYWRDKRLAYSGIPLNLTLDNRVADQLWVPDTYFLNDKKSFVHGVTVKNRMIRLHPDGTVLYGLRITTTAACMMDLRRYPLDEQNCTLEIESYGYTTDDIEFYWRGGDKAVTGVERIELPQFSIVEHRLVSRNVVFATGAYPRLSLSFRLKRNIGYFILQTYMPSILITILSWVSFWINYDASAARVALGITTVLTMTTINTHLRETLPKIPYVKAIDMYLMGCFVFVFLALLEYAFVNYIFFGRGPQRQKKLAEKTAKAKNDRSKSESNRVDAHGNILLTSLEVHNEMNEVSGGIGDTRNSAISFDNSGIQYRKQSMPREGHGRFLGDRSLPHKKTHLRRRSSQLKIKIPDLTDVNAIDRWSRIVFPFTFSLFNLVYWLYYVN
T1 sequence (P18507 40-475): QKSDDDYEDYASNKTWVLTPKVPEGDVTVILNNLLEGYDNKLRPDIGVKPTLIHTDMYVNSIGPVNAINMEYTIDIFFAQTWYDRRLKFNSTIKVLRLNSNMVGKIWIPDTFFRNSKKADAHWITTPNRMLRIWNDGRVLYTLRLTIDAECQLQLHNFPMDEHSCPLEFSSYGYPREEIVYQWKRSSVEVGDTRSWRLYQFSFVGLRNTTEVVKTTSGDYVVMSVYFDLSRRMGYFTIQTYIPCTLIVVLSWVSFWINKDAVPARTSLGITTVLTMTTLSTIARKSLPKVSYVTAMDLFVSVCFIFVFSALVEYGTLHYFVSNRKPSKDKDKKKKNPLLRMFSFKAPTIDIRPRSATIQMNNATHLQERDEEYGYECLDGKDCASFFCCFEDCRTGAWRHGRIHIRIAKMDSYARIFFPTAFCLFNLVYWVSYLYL

Row | SMILES | pKi [1] | also measured
1 | CC(C)C#Cc1ccc2c(c1)-n1nncc1Cc1c(Br)ncn1-2 [Compound 454] | > 7.00 | –
2 | CCOCc1nnc2n1Cc1c(C3=N[C@@H](c4ccccc4F)CO3)ncn1-c1ccc(Cl)cc1-2 [Compound 322] | > 7.00 | –
3 | CCOC(=O)c1ncn2c1Cc1c(Cc3ccccc3)cnn1-c1cc(OC)ccc1-2 [Compound 8] | > 7.00 | –
4 | COc1ccc2c(c1)-n1nnc(COc3cccc(F)c3)c1Cc1c(-c3noc(C)n3)ncn1-2 [Compound 168] | > 7.00 | –
5 | COc1ccc2c(c1)-n1nnc(COc3ccc(F)cc3)c1Cc1c(C#N)ncn1-2 [Compound 222] | > 7.00 | –
6 | COc1ccc2c(c1)-n1nncc1Cc1c(-c3nc(-c4ccc(F)c(C(F)(F)F)c4)co3)ncn1-2 [Compound 392] | 6.00 to 7.00 | –
7 | N#Cc1ncn2c1Cn1c(COc3ccccc3)nnc1-c1cc(F)ccc1-2 [Compound 157] | > 7.00 | –
8 | FC(F)(F)COCc1nnc2n1Cc1c(C3=NCCO3)ncn1-c1ccc(Cl)cc1-2 [Compound 309] | 6.00 to 7.00 | –
9 | COc1ccc2c(c1)-n1nncc1Cc1c(C#Cc3ccccc3C)ncn1-2 [Compound 405] | > 7.00 | –
10 | COCc1nnc2n1Cc1c(C3=NCCCO3)ncn1-c1ccc(Cl)cc1-2 [Compound 237] | 6.00 to 7.00 | –
11 | Cc1nc(-c2ncn3c2Cn2c(COc4ccccc4)nnc2-c2cc(F)ccc2-3)no1 [Compound 148] | > 7.00 | –
12 | Cc1ccccc1C#Cc1ncn2c1Cn1c(COC(C)C)nnc1-c1cc(Cl)ccc1-2 [Compound 310] | > 7.00 | –
13 | COCc1nnc2n1Cc1c(-c3noc(C)n3)ncn1-c1ccc(OC)cc1-2 [Compound 164] | > 7.00 | –
14 | COc1ccc2c(c1)-c1nnc(COCc3ccccc3)n1Cc1c(-c3noc(C)n3)ncn1-2 [Compound 165] | > 7.00 | –
15 | COc1ccc2c(c1)-n1nncc1Cc1c(C#CCc3cccc(Cl)c3)ncn1-2 [Compound 417] | > 7.00 | –
16 | C#Cc1ncn2c1Cc1c(C(=O)c3ccc(F)cc3)nnn1-c1cc(OC)ccc1-2 [Compound 218] | > 7.00 | –
17 | CC(C)OCc1nnc2n1Cc1c(C3=N[C@H](C)CO3)ncn1-c1ccc(Cl)cc1-2 [Compound 286] | 6.00 to 7.00 | –
18 | FC(F)(F)CC#Cc1ncn2c1Cc1cnnn1-c1cc(Cl)ccc1-2 [Compound 398] | > 7.00 | –
19 | Fc1ccc2c(c1)-n1cnc(Br)c1Cc1c(Cc3ccccc3)nnn1-2 [Compound 229] | < 6.00 | –
20 | COCc1nnc2n1Cc1c(C#CCc3cccc(OC(F)(F)F)c3)ncn1-c1ccc(Cl)cc1-2 [Compound 423] | > 7.00 | –

Row | SMILES | pKi [1] | also measured
21 | COCc1nnc2n1Cc1c(COc3ccccc3)ncn1-c1ccc(Cl)cc1-2 [Compound 429] | – | pKi (inhibition of [3H]Ro15-1788 binding, reported as ranges): < 6.00
22 | COc1ccc2c(c1)-n1nncc1Cc1c(-c3nc(C(C)C)no3)ncn1-2 [Compound 257] | > 7.00 | –
23 | CCOC(=O)c1ncn2c1Cc1c(Cc3ccc(C)cc3)nnn1-c1cc(F)ccc1-2 [Compound 44] | > 7.00 | –
24 | CCOC(=O)c1ncn2c1Cn1c(Oc3ccccc3)nnc1-c1cc(OC)ccc1-2 [Compound 104] | > 7.00 | –
25 | COCc1nnc2n1Cc1c(-c3nc(C)no3)ncn1-c1cc(Cl)ccc1-2 [Compound 457] | – | pKi: < 6.00
26 | COCc1nnc2n1Cc1c(C3=NC[C@H](C)O3)ncn1-c1ccc(Cl)cc1-2 [Compound 295] | > 7.00 | –
27 | CCOC(=O)c1ncn2c1Cc1c(COc3ccccc3)nnn1-c1cc(OC)ccc1-2 [Compound 9] | > 7.00 | –
28 | COCc1nnc2n1Cc1c(C3=N[C@@H](c4ccccc4)CO3)ncn1-c1ccc(Cl)cc1-2 [Compound 264] | > 7.00 | –
29 | COCc1nnc2n1Cc1c(C3=N[C@@H](c4cccc(C(F)(F)F)c4)CO3)ncn1-c1ccc(Cl)cc1-2 [Compound 336] | 6.00 to 7.00 | –
30 | COc1ccc2c(c1)-n1nncc1Cc1c(C3=N[C@H](C)CO3)ncn1-2 [Compound 291] | > 7.00 | –
31 | COc1ccc2c(c1)-n1nncc1Cc1c(C3=N[C@@H](c4ccccc4)CO3)ncn1-2 [Compound 289] | > 7.00 | –
32 | CCOCc1nnc2n1Cc1c(C3=N[C@H](c4ccccc4)CO3)ncn1-c1ccc(Cl)cc1-2 [Compound 271] | > 7.00 | –
33 | CC(C)c1coc(-c2ncn3c2Cc2cnnn2-c2cc(Cl)ccc2-3)n1 [Compound 387] | > 7.00 | –
34 | COCc1nnc2n1Cc1c(C3=N[C@@H](c4cc(F)ccc4F)CO3)ncn1-c1ccc(Cl)cc1-2 [Compound 335] | > 7.00 | –
35 | Cc1cccc(C)c1OCc1nnc2n1Cc1c(-c3noc(C(C)C)n3)ncn1-c1ccc(F)cc1-2 [Compound 190] | > 7.00 | –
36 | COCc1nnc2n1Cc1c(-c3nc(C)no3)ncn1-c1ccc(C#N)cc1-2 [Compound 465] | > 7.00 | –
37 | COCc1nnc2n1Cc1c(Br)ncn1-c1ccc(OC)cc1-2 [Compound 129] | > 7.00 | –
38 | COCc1nnc2n1Cc1c(C3=NCCO3)ncn1-c1ccc(Cl)cc1-2 [Compound 238] | > 7.00 | –
39 | COc1ccc2c(c1)-n1nncc1Cc1c(-c3nc(-c4ccccc4)co3)ncn1-2 [Compound 388] | > 7.00 | –
40 | COc1ccc2c(c1)-n1nnc(Cc3cccnc3)c1Cc1c(C#N)ncn1-2 [Compound 210] | > 7.00 | –

Row | SMILES | pKi [1] | also measured
41 | COc1ccc2c(c1)-c1nnc(COc3ccccc3)n1Cc1c(-c3noc(C(C)C)n3)ncn1-2 [Compound 171] | > 7.00 | –
42 | COc1ccc2c(c1)-n1nnc(CN3CCC(c4ccccc4)CC3)c1Cc1c(C#N)ncn1-2 [Compound 253] | < 6.00 | –
43 | COCc1nnn2c1Cc1c(C3=N[C@@H](Cc4ccccc4)CO3)ncn1-c1ccc(Cl)cc1-2 [Compound 299] | 6.00 to 7.00 | –
44 | C#Cc1ncn2c1Cn1c(COCC)nnc1-c1cc(Cl)ccc1-2 [Compound 261] | > 7.00 | –
45 | CCOC(=O)c1ncn2c1Cn1c(COCC(F)(F)F)nnc1-c1cc(Cl)ccc1-2 [Compound 308] | > 7.00 | –
46 | CCOC(=O)c1ncn2c1Cc1c(Cc3cccc(Cl)c3)nnn1-c1cc(OC)ccc1-2 [Compound 52] | > 7.00 | –
47 | CCOCc1ncn2c1Cc1c(COCC)nnn1-c1ccccc1-2 [Compound 134] | 6.00 to 7.00 | –
48 | COCc1nnc2n1Cc1c(C3=N[C@@H](c4ccc(OC)cc4)CO3)ncn1-c1ccc(Cl)cc1-2 [Compound 332] | > 7.00 | –
49 | COCc1nnc2n1Cc1c(C3=N[C@@H](c4ccc(F)cc4)CO3)ncn1-c1ccc(Cl)cc1-2 [Compound 320] | > 7.00 | –
50 | CC(C)c1nc(-c2ncn3c2Cn2c(COc4cccc(F)c4)nnc2-c2cc(F)ccc2-3)no1 [Compound 188] | > 7.00 | –
51 | CCOC(=O)c1ncn2c1Cc1c(CN(CC)CC)nnn1-c1cc(OC)ccc1-2 [Compound 50] | 6.00 to 7.00 | –
52 | COCc1nnc2n1Cc1c(-c3noc(C(C)C)n3)ncn1-c1ccc(F)cc1-2 [Compound 186] | > 7.00 | –
53 | COCc1nnc2n1Cc1c(-c3noc(C)n3)ncn1-c1ccc(Cl)cc1-2 [Compound 427] | > 7.00 | –
54 | CCOC(=O)c1ncn2c1Cn1c(COC)nnc1-c1cc(OC)ccc1-2 [Compound 103] | > 7.00 | –
55 | COc1ccc2c(c1)-c1nnc(COCc3ccccc3)n1Cc1c(C#N)ncn1-2 [Compound 166] | > 7.00 | –
56 | COCc1nnc2n1Cc1c(-c3ncco3)ncn1-c1ccc(OC(F)(F)F)cc1-2 [Compound 467] | > 7.00 | –
57 | COCc1nnc2n1Cc1c(C3=N[C@@H](c4ccc(C(F)(F)F)cc4)CO3)ncn1-c1ccc(Cl)cc1-2 [Compound 337] | > 7.00 | –
58 | Cc1nnn2c1Cc1c(C3=N[C@H](c4ccccc4)CO3)ncn1-c1ccc(Cl)cc1-2 [Compound 377] | > 7.00 | –
59 | COc1ccc2c(c1)-n1nnc(C)c1Cc1c(-c3nc(C)no3)ncn1-2 [Compound 167] | > 7.00 | –

— patent publication US20180170941A1 (priority 2016, published 2018)
